Laboratory results from US9248098B2, “Treating or preventing pain using spicamycin derivatives” (DARA BIOSCIENCES, INC., priority 2008, dated 2016).

Columns and labels:
[1] = system: patients with end-stage cancer experiencing neuropathic pain; assay: Phase 2 placebo-controlled study of KRN5500, safety; assay type: in vivo, human
Procedure: (§1) A Phase 2, multicenter, placebo-controlled, randomized, parallel group study was carried out to evaluate the safety, efficacy, and dose-response of KRN5500 in patients with end-stage cancer experiencing neuropathic pain. Nineteen (19) patients were enrolled in the study. Thirteen were randomized to receive KRN5500 and 6 were randomized to receive placebo. Due to a randomization error at an investigative site, one patient randomized to receive KRN5500 actually received placebo. Of the 12 patients who received KRN5500, 3 (25%) completed all dosing visits. Two (28.6%) of the patients who received placebo completed all dosing visits. No patients were lost to follow up and no patients died.
(§2) The median duration of exposure to KRN5500 was 40 days compared to 29 days for placebo. On average, KRN5500 patients took 5.3 doses while placebo patients took 4.4 doses. The highest dose received was 2.2 mg/m^2. Seven (58.3%) of KRN5500 patients were exposed to at least one dose at this level, while 4 (57.1%) of Placebo patients were exposed to at least one dose at this level.
All patients treated with KRN5500 (100%) had at least one treatment emergent adverse event, compared to 86% (6 of 7 patients) in the Placebo treated group. Events recorded by the KRN5500 patients tended to be more severe (84% moderate or severe in KRN5500 vs. 71% in Placebo). Events were typically gastrointestinal disorders such as nausea or vomiting and were more frequently considered to be related to treatment in the KRN5500 group than in the Placebo group (92% vs. 14%). Three patients (25%) in the KRN5500 group and 1 (14%) patient in the Placebo group experienced serious adverse events (AEs). […] Two patients treated with KRN5500 withdrew from the study due to nausea and vomiting which were thought to be related to study drug. One patient treated with KRN5500 withdrew due to convulsions not thought to be related to study drug. One patient treated with Placebo withdrew from the study due to a stroke not related to study drug.

[2] = system: rat models of neuropathic pain; conditions: Abdi et al. 2000; Kobierski et al. 2003; cited from earlier work
[3] = system: patients with end-stage cancer experiencing neuropathic pain; assay: Phase 2 placebo-controlled study of KRN5500, efficacy on neuropathic pain; assay type: in vivo, human; conditions: for median decrease from baseline in pain intensity, clinic numeric rating scale (NRS) scores: placebo median change zero
Procedure: as §1
The treatment groups were similar in demographics, with the majority of patients being Caucasian (73.7%) and approximately 50/50 in distribution by gender. The median age of patients enrolled was 62 years, ranging from 41 to 84 years. The average body surface area (BSA) was 1.8 m^2 ranging from 0.95 to 2.27 m^2. The majority of the patient population had allodynia (84.2%). This and other baseline characteristics of neuropathic pain were consistent between the treatment groups.
as §2
Pain intensity, based on clinic numeric rating scale (NRS) scores, was analyzed for both the Intent-to-treat (ITT) and modified efficacy (ME) populations. […] Since more than 80% of patients had allodynia as a baseline characteristic, results from the analysis of the subset of patients with allodynia present at baseline was consistent with the overall analysis. Too few patients presented without allodynia at baseline to adequately draw conclusions in this subset. […] Three (25%) of the KRN5500 treated patients achieved 33% or greater pain decrease and none of the placebo patients achieved this level.

[4] = of 12 patients who received KRN5500
[5] = brief pain inventory, no change in placebo
[6] = neuropathic pain questionnaire, versus placebo

CCCCCCCCC/C=C/C=C/C(=O)NCC(=O)N[C@@H]1[C@@H](O)[C@@H](O)[C@@H](Nc2ncnc3[nH]cnc23)O[C@H]1[C@@H](O)CO [KRN5500, 6-[4-deoxy-4-[(2E,4E)-tetradecadienoylglycyl}amino-L-glycero-β-L-mannoheptopyranosyl]amino-9H-purine]
incidence of nausea and vomiting ([1]; generally considered related to study drug): High incidences of nausea and vomiting
deaths ([1]; in vivo): No deaths were observed
relation of serious AEs to study drug ([1]; in vivo): None were considered to be related to study drug
patients withdrawn due to convulsions not thought to be related to study drug [1, 4]: One
patients withdrawn due to nausea and vomiting thought to be related to study drug [1, 4]: Two
adverse events moderate or severe ([1]; placebo 71%): 84%
patients with at least one treatment emergent adverse event ([1]; placebo 86% (6 of 7 patients)): 100%
patients experiencing serious adverse events (AEs) ([1]; three patients, placebo 1 (14%)): 25%
clinically significant laboratory abnormalities, changes in vital signs, physical examinations, or ECGs ([1]; throughout the study): not observed
adverse events considered to be related to treatment ([1]; typically gastrointestinal disorders such as nausea or vomiting, placebo 14%): 92%
efficacy in rat models of neuropathic pain [2]: effective
aggregated physical and mental SF-12 scores ([3]; 1 week post-dose follow up): basically unchanged from baseline
dose response at last dose received (Endpoint) ([3]; ITT or ME population analysis): no trend for dose response
median decrease from baseline in pain intensity, clinic numeric rating scale (NRS) scores ([3]; Intent-to-treat (ITT) population): 22%
significance of decrease in pain intensity (clinic NRS) ([3]; Wilcoxon Rank Sum test of the medians, ME analysis, p=0.03): statistically significant decrease
dynamic and cold allodynia assessment ([3]; affected and unaffected areas, versus placebo): larger decrease in pain associated with both touch and cold
BPI: aggregate measure of pain's interference in the last 24 hours [3, 5]: decreases from baseline
BPI: patient perception of pain at its least in the past 24 hours [3, 5]: decreases from baseline
patients with a 20% or greater reduction in pain intensity ([3]; diary endpoint, 5 of KRN5500 treated patients, placebo 1 (14%)): 42%
median decrease from baseline in pain intensity, clinic numeric rating scale (NRS) scores ([3]; modified efficacy (ME) population): 23.6%
NPQ individual questions: burning pain, electric pain and freezing pain [3, 6]: decreases from baseline in favor of KRN5500
NPQ questions: sensitivity to touch, shooting pain, numbness, tingling, or squeezing pain [3, 6]: no different between treatment groups
NPQ: increased pain due to touch or to weather changes [3, 6]: no treatment differences
best pain intensity response (largest decrease in pain) recorded in clinic over all doses, median decrease ([3]; placebo showed no decrease): 29.3%
median decrease in pain intensity based on diary data ([3]; placebo showed no decrease): 16.4%
SPQ: brush/touch induced pain scores ([3]; supplemental pain questionnaire): greater decrease in pain scores than the Placebo treated patients
SPQ: cold induced pain ([3]; supplemental pain questionnaire, at endpoint, both groups decreased): no treatment differences
patients achieving 33% or greater pain decrease ([3]; three KRN5500 treated patients, none of the placebo patients): 25%
Karnofsky Performance Status (KPS) ([3]; throughout the study, baseline median 75): did not change throughout the study
